This is an account of results in paper PMC12250785, “Synthesis of Novel 7-Phenyl-2,3-Dihydropyrrolo[2,1-b]Quinazolin-9(1H)-ones as Cholinesterase Inhibitors Targeting Alzheimer’s Disease Through Suzuki–Miyaura Cross-Coupling Reaction” (Molecules, 2025).

Each structure is given as a SMILES string.

One data set deals with AChE (E.C. 3.1.1.7) (Electrophorus electricus, UniProt O42275). Description: biochemical. Particulars: for IC50: AChE from electric eel, Ellman method, means ± SD of triplicate independent experiments; for Selectivity (BChE/AChE): BChE IC50/AChE IC50. How it is done: The results are presented as IC50 values.
Sequence of AChE (E.C. 3.1.1.7) (O42275 24-633): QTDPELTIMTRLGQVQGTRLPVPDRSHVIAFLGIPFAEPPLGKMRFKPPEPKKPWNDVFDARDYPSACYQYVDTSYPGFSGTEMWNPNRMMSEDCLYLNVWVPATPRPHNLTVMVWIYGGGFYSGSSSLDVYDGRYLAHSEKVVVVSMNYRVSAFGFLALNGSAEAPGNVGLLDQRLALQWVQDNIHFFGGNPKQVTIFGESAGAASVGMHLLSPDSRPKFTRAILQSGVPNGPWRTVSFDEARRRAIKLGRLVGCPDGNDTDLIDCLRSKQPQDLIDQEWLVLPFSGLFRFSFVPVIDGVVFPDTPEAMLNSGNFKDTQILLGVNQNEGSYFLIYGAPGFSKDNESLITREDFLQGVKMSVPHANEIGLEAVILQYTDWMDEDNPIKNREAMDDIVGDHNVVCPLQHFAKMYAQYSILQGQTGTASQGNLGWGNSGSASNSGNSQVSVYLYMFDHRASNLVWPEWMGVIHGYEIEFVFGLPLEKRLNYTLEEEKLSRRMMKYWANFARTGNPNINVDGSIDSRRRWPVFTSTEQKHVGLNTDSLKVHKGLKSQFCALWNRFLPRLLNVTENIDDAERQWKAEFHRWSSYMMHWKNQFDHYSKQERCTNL
The total volume of the reaction was 200 μL, consisting of 2 μL of sample, 138 μL of Tris-HCl buffer solution containing acetylcholinesterase (final concentration of 0.03 U/mL), and a control consisting of Tris-HCl buffer solution without the enzyme. The reaction was incubated at room temperature for 10 min. Following this, 20 μL of […] (5 mM) was added, and the reaction was conducted at 37 °C for an additional 10 min.

Another data set concerns the target BChE (E.C. 3.1.1.8) (Equus caballus, UniProt P81908). Description: biochemical. Particulars: BChE from horse serum; Ellman method; means ± SD of triplicate independent experiments. In general terms: Ellman's reagent forms a yellow product with free thiols.
Data set [1] is described as follows: Solubility in common organic solvents. The data set is classed as physicochemical.

Sequence of BChE (E.C. 3.1.1.8) (P81908 whole entry): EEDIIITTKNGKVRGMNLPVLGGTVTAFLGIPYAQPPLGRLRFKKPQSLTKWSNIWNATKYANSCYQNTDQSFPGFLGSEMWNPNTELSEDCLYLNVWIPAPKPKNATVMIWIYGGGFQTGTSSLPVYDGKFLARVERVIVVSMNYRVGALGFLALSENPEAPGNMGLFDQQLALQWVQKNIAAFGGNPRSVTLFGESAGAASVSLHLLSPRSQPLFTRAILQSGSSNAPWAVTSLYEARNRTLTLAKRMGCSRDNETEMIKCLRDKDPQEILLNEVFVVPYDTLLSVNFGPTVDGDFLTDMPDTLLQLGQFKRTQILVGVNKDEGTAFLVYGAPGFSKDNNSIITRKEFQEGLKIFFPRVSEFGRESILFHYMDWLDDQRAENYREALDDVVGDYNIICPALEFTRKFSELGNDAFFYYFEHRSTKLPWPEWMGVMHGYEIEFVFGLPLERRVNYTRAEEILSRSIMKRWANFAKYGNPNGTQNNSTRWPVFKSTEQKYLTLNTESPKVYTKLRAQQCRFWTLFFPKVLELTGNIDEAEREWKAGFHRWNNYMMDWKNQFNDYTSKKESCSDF

The IC50 is the point on the concentration scale where inhibition reaches its midpoint. A high value points to weaker potency. Turning to `O=c1c2cc(-c3ccc(Cl)cc3)ccc2nc2n1CCC2` [3a, 7-(4-Chlorophenyl)-2,3-dihydropyrrolo[2,1-b]quinazolin-9(1H)-one], the IC50 on AChE (E.C. 3.1.1.7) and on BChE (E.C. 3.1.1.8) was > 50 µM throughout.
In the case of `O=c1c2cc(-c3ccc(F)cc3)ccc2nc2n1CCC2` [3b, 7-(4-Fluorophenyl)-2,3-dihydropyrrolo[2,1-b]quinazolin-9(1H)-one], on AChE (E.C. 3.1.1.7), the 50% inhibitory concentration (IC50) was 34.8 ± 1.21 µM and the “Selectivity (BChE/AChE)” value is on record as 0.5. This molecule showed an IC50 against BChE (E.C. 3.1.1.8) of 15.5 ± 0.41 µM.
With `O=c1c2cc(-c3ccc(C(F)(F)F)cc3)ccc2nc2n1CCC2` [3c, 7-(4-(Trifluoromethyl)phenyl)-2,3-dihydropyrrolo[2,1-b]quinazolin-9(1H)-one], the IC50 on AChE (E.C. 3.1.1.7) and against BChE (E.C. 3.1.1.8) was > 50 µM each time.
Turning to `COc1ccc(-c2ccc3nc4n(c(=O)c3c2)CCC4)cc1` [3d, 7-(4-Methoxyphenyl)-2,3-dihydropyrrolo[2,1-b]quinazolin-9(1H)-one], the IC50 on AChE (E.C. 3.1.1.7) was 16.2 ± 0.39 µM; on BChE (E.C. 3.1.1.8) it was > 50 µM.
The corresponding values for `CC(C)(C)c1ccc(-c2ccc3nc4n(c(=O)c3c2)CCC4)cc1` [3e, 7-(4-(tert-Butyl)phenyl)-2,3-dihydropyrrolo[2,1-b]quinazolin-9(1H)-one] are > 50 µM and > 50 µM.
Consider `Cc1cccc(-c2ccc3nc4n(c(=O)c3c2)CCC4)c1` [3f, 7-(m-Tolyl)-2,3-dihydropyrrolo[2,1-b]quinazolin-9(1H)-one], for which the IC50 worked out at 28.7 ± 0.69 µM at AChE (E.C. 3.1.1.7) and 22.8 ± 0.49 µM at BChE (E.C. 3.1.1.8). Besides, the “Selectivity (BChE/AChE)” value at AChE (E.C. 3.1.1.7) is 0.8.
For `O=c1c2cc(-c3cccc(Cl)c3)ccc2nc2n1CCC2` [3g, 7-(3-Chlorophenyl)-2,3-dihydropyrrolo[2,1-b]quinazolin-9(1H)-one], in that order: 27.9 ± 0.72 µM, 22.2 ± 0.48 µM and 0.8.
The corresponding values for `COc1cccc(-c2ccc3nc4n(c(=O)c3c2)CCC4)c1` [3h, 7-(3-Methoxyphenyl)-2,3-dihydropyrrolo[2,1-b]quinazolin-9(1H)-one] are 17.7 ± 0.84 µM, 41.8 ± 1.28 µM and 2.4.
For the molecule `CC(=O)c1cccc(-c2ccc3nc4n(c(=O)c3c2)CCC4)c1` [3i, 7-(3-Acetylphenyl)-2,3-dihydropyrrolo[2,1-b]quinazolin-9(1H)-one], the results for the IC50 on AChE (E.C. 3.1.1.7) and against BChE (E.C. 3.1.1.8) were 33.2 ± 1.01 µM and > 50 µM, respectively.
In the case of `Cc1ccccc1-c1ccc2nc3n(c(=O)c2c1)CCC3` [3j, 7-(o-Tolyl)-2,3-dihydropyrrolo[2,1-b]quinazolin-9(1H)-one], the IC50 is > 50 µM on AChE (E.C. 3.1.1.7) and 11.1 ± 0.37 µM on BChE (E.C. 3.1.1.8).
In the case of `O=c1c2cc(-c3ccc(F)c(Cl)c3)ccc2nc2n1CCC2` [3k, 7-(3-Chloro-4-fluorophenyl)-2,3-dihydropyrrolo[2,1-b]quinazolin-9(1H)-one], on AChE (E.C. 3.1.1.7), the concentration for half-maximal inhibition (IC50) is 6.08 ± 0.26 µM and the “Selectivity (BChE/AChE)” value is given as 4.8. The same molecule gave an IC50 at BChE (E.C. 3.1.1.8) of 29 ± 0.74 µM.
For `COc1ccc(Cl)cc1-c1ccc2nc3n(c(=O)c2c1)CCC3` [3l, 7-(5-Chloro-2-methoxyphenyl)-2,3-dihydropyrrolo[2,1-b]quinazolin-9(1H)-one], in that order: 14.7 ± 0.48 µM, 2.0 and 28.5 ± 0.46 µM.
With `O=c1c2cc(-c3cccc4ccccc34)ccc2nc2n1CCC2` [3m, 7-(Naphthalen-1-yl)-2,3-dihydropyrrolo[2,1-b]quinazolin-9(1H)-one], the 50% inhibitory concentration (IC50) is > 50 µM at AChE (E.C. 3.1.1.7) and 32 ± 0.72 µM against BChE (E.C. 3.1.1.8).
Consider `O=c1c2cc(-c3ccccc3)ccc2nc2n1CCC2` [3n, 7-Phenyl-2,3-dihydropyrrolo[2,1-b]quinazolin-9(1H)-one], for which the results for the IC50 at AChE (E.C. 3.1.1.7) and on BChE (E.C. 3.1.1.8) were 35.9 ± 1.03 µM and 22.9 ± 0.57 µM, respectively. The “Selectivity (BChE/AChE)” value on AChE (E.C. 3.1.1.7) stood at 0.64.
For the molecule `O=c1c2cc(-c3ccc(Cl)cc3)ccc2nc2n1CCCC2` [4a, 2-(4-Chlorophenyl)-6,7,8,9-tetrahydro-11H-pyrido[2,1-b]quinazolin-11-one], the IC50 at AChE (E.C. 3.1.1.7) and at BChE (E.C. 3.1.1.8) was > 50 µM in each case.
As to `O=c1c2cc(-c3ccc(F)cc3)ccc2nc2n1CCCC2` [4b, 2-(4-Fluorophenyl)-6,7,8,9-tetrahydro-11H-pyrido[2,1-b]quinazolin-11-one], the IC50 is 34.6 ± 1.27 µM against AChE (E.C. 3.1.1.7) and > 50 µM against BChE (E.C. 3.1.1.8).
The corresponding values for `O=c1c2cc(-c3ccc(C(F)(F)F)cc3)ccc2nc2n1CCCC2` [4c, 2-(4-(Trifluoromethyl)phenyl)-6,7,8,9-tetrahydro-11H-pyrido[2,1-b]quinazolin-11-one] are > 50 µM and > 50 µM.
For `COc1ccc(-c2ccc3nc4n(c(=O)c3c2)CCCC4)cc1` [4d, 2-(4-Methoxyphenyl)-6,7,8,9-tetrahydro-11H-pyrido[2,1-b]quinazolin-11-one], in that order: 33.2 ± 1.08 µM and > 50 µM.
On to `CC(C)(C)c1ccc(-c2ccc3nc4n(c(=O)c3c2)CCCC4)cc1` [4e, 2-(4-(tert-Butyl)phenyl)-6,7,8,9-tetrahydro-11H-pyrido[2,1-b]quinazolin-11-one], for which the 50% inhibitory concentration (IC50) against AChE (E.C. 3.1.1.7) and against BChE (E.C. 3.1.1.8) was > 50 µM each time.
Regarding `Cc1cccc(-c2ccc3nc4n(c(=O)c3c2)CCCC4)c1` [4f, 2-(m-Tolyl)-6,7,8,9-tetrahydro-11H-pyrido[2,1-b]quinazolin-11-one], the “solubility in common organic solvents” value in data set [1] was “poor solubility”. At AChE (E.C. 3.1.1.7), the midpoint of inhibition, the IC50, lay at 6.39 ± 0.31 µM and the “Selectivity (BChE/AChE)” value worked out at 1.7. In addition, the midpoint of inhibition against BChE (E.C. 3.1.1.8), the IC50, lay at 10.7 ± 0.64 µM.
`O=c1c2cc(-c3cccc(Cl)c3)ccc2nc2n1CCCC2` [4g, 2-(3-Chlorophenyl)-6,7,8,9-tetrahydro-11H-pyrido[2,1-b]quinazolin-11-one]: at AChE (E.C. 3.1.1.7), the IC50 amounted to 21.3 ± 0.88 µM and the “Selectivity (BChE/AChE)” value was found to be 1.1. Further, the 50% inhibitory concentration (IC50) at BChE (E.C. 3.1.1.8) worked out at 22.9 ± 0.76 µM.
Take `COc1cccc(-c2ccc3nc4n(c(=O)c3c2)CCCC4)c1` [4h, 2-(3-Methoxyphenyl)-6,7,8,9-tetrahydro-11H-pyrido[2,1-b]quinazolin-11-one]: the IC50 at AChE (E.C. 3.1.1.7) came out at 42.7 ± 1.8 µM; against BChE (E.C. 3.1.1.8), 42.3 ± 1.23 µM. The “Selectivity (BChE/AChE)” value at AChE (E.C. 3.1.1.7) turned out to be 1.
`CC(=O)c1cccc(-c2ccc3nc4n(c(=O)c3c2)CCCC4)c1` [4i, 2-(3-Acetylphenyl)-6,7,8,9-tetrahydro-11H-pyrido[2,1-b]quinazolin-11-one]: the IC50 at AChE (E.C. 3.1.1.7) was 11.1 ± 0.73 µM; against BChE (E.C. 3.1.1.8), > 50 µM.
As for `Cc1ccccc1-c1ccc2nc3n(c(=O)c2c1)CCCC3` [4j, 2-(o-Tolyl)-6,7,8,9-tetrahydro-11H-pyrido[2,1-b]quinazolin-11-one], the IC50 at AChE (E.C. 3.1.1.7) and against BChE (E.C. 3.1.1.8) was > 50 µM throughout.
Regarding `O=c1c2cc(-c3ccc(F)c(Cl)c3)ccc2nc2n1CCCC2` [4k, 2-(3-Chloro-4-fluorophenyl)-6,7,8,9-tetrahydro-11H-pyrido[2,1-b]quinazolin-11-one], the IC50 at AChE (E.C. 3.1.1.7) and against BChE (E.C. 3.1.1.8) was > 50 µM in each case.
Regarding `COc1ccc(Cl)cc1-c1ccc2nc3n(c(=O)c2c1)CCCC3` [4l, 2-(5-Chloro-2-methoxyphenyl)-6,7,8,9-tetrahydro-11H-pyrido[2,1-b]quinazolin-11-one], the IC50 against AChE (E.C. 3.1.1.7) was > 50 µM; against BChE (E.C. 3.1.1.8), 46.6 ± 1.45 µM.
Take `O=c1c2cc(-c3cccc4ccccc34)ccc2nc2n1CCCC2` [4m, 2-(Naphthalen-1-yl)-6,7,8,9-tetrahydro-11H-pyrido[2,1-b]quinazolin-11-one]: the IC50 against AChE (E.C. 3.1.1.7) and against BChE (E.C. 3.1.1.8) was > 50 µM in each case.
Take `O=c1c2cc(-c3ccccc3C(F)(F)F)ccc2nc2n1CCCC2` [4n, 2-(2-(Trifluoromethyl)phenyl)-6,7,8,9-tetrahydro-11H-pyrido[2,1-b]quinazolin-11-one]: the IC50 on AChE (E.C. 3.1.1.7) was > 50 µM; against BChE (E.C. 3.1.1.8) it was 43.2 ± 1.27 µM.
